The test system of one series is HIV. In words: DNP hyperthermia, HIV disease (Example 2). It is filed as in vivo, human. The protocol: Pretreatment protocol: all medications were stopped 2 weeks prior to treatment. The patient refused taking diazepam, placement of a Foley catheter and oxygen face mask. They dressed themself into a dry cold water immersion suit (Stearns, ISS-590I, Universal Adult) designed to prevent heat loss and modified for easy placement of physiologic monitors. Equipment for measurement of heart rate, temperature, carbon dioxide production and Kcal of heat produced were conducted as outlined in Example 1. An oral breathing tube was used to measure V02 from room air. Urine output was measured when the patient voluntarily urinated through a “Texas” catheter (superficial condom tightly fitted around the head of the penis with tubing connected to urine collection bag). The patient was informed that hyperthermia would be administered as tolerated by their stamina and monitored clinical parameters, not to exceed 5 hours, on a daily or every other day basis, for a total of 5 sessions.
Treatment procedure: Baseline reading for 5 minutes established an average V02 of 300 cc/min. An initial dose of 2 mg/kg of DNP was administered over a 2 minute period. V02 increased and stabilized at 15 minutes at 340-380 cc/min. An additional 2 mg/kg DNP infusion was given, the V02 increased and stabilized at 610-630 cc/min. […] Norepinephrine bitartrate (Levophed) was given IV drip at a dose of 1 microgram/min. and adjusted to maintain blood pressure at 130/80. Approximately 1 minute after initiating the vasopressor, heart rate increased from 90 to 100 and V02 to 0.85 liters/min. […] V02 was maintained at 1.0 liters/min. by lowering or increasing the dose of norepinephrine. An additional infusion of 1 mg/kg DNP was given at hour 4 to correct a dropping V02. On occasions when the core temperature increased above 41.6° C., a lower extremity was exposed for evaporative heat loss. […] The protocol was repeated consecutively for 5 days without the additional use of vasopressors.

The subject of series [1] is peritoneal carcinomatosis, undifferentiated adenocarcinoma. In words: DNP with vasopressor and chemotherapy, peritoneal carcinomatosis (Example 4). It is filed as in vivo, human. The source says:
It was elected to treat the patient with hyperthermochemotherapy. Treatment consisted of DNP, and combination chemotherapy with carboplatin, mitomycin, and doxifluridine. An α-1 adrenergic receptor agonist was used to minimize peripheral vascular dilation and heat loss.
Pretreatment protocol: the patient was transfused with three units of packed red blood cells. A Foley catheter was inserted on each day of treatment. They were covered in a water soaked blanket containing a polyethylene lining. A shower cap with towels was used to prevent heat loss from the head. Intravenous lines were placed into both arms with 19 gauge intracaths. EKG, heart rate, rectal thermistor, and V02 monitors were attached. Oxygen supplemented facemask and equipment was attached and data monitored as previously described under Example 1.
Treatment protocol: the patient was given chemotherapy […]. The total doses of carboplatin, and mitomycin were 450 mg and 24 mg IV respectively on day 1 and last day of week 6. Doxifluridine, 600 mg, was orally administered every day for 5 days and repeated the last 5 days of week 6. On the day of DNP infusion, baseline recordings were established for 10 minutes. Mephenteramine sulfate, 30 mg, was given by intramuscular injection. Ten minutes later their heart rate increased to 96 and […] V02 increased from 250 to 320 cc/min. V02, heart rate and blood pressure stabilized after 20 minutes and they were given an initial dose of 1 mg/kg DNP. Additional 0.5 mg/kg infusions of DNP were administered in 3 successive infusions spaced 20 minutes apart. […] The DNP treatment protocol was repeated every fourth day for a period of 6 weeks.

The test system of series [2] is tumors and normal fibroblasts. To be noted: many tumors and normal fibroblasts treated with DNP; cited from earlier work.
The next series concerns hepatic ischemic injury. In words: hepatic ischemic injury by Pringle's maneuver after DNP pretreatment. It is filed as in vivo. To be noted: Pringle's maneuver (FIG. 22). The source says: This method of DNP induced preconditioning could be used to decrease intimal thickening and restenosis after angioplasty, improve ischemia/reperfusion injury in organ and tissue transplantation, and improve surgical outcome of procedures that require temporary or prolonged occlusion of arterial blood flow.

For series [3] the following is noted: man and animals accidentally intoxicated; cited from earlier work.
In series [4] the test system is chronically HIV infected HUT-78 cells. In words: in vitro inactivation of chronically HIV infected cells. It is filed as cell-based. As to conditions: varying concentrations of DNP (FIG. 16). The source says:
Clinical assessment and treatment evaluation: HIV and HIV-infected T cells are known to be more sensitive to killing by heat than uninfected lymphocytes. Susceptibility to heat killing is enhanced with increased oxygen free radical production. Acute and chronically infected cells have decreased levels of manganous superoxide dismutase (MnSOD) activity. MnSOD is located exclusively in mitochondria. Mathematical modeling of human HIV production and CD4+ T cell turnover predicts that reducing both free virus and actively infected cells by a minimum of 40% with 1 hour of 42° C. therapeutic hyperthermia every third day will promote recovery of the uninfected T-cell population. Human HIV studies with extracorporeal hyperthermia of 41-42° C. have reported isolated cases of extended patient survival, elimination of detectable virus, and improvement of Kaposi's sarcoma lesions. DNP is known to generate intracellular hyperthermia and oxygen free radicals from the level of the inner mitochondrial membrane. Studies on in vitro inactivation of chronically HIV infected HUT-78 cells by various concentrations of DNP are graphically represented in FIG. 16.

The values that follow come from patent US7635722B1, “Chemical induced intracellular hyperthermia” (priority 1998, dated 2009).

In the case of `O=[N+]([O-])c1ccc(O)c([N+](=O)[O-])c1` [DNP, 2,4-dinitrophenol], the lymphadenopathy entry in the series on HIV (2 weeks post-treatment) is reported as “resolved”. In the series on HIV (4, 6 and 12 weeks post-treatment), the “HIV RNA” value is reported as “non-detectable”. The “CD4+ T cell lymphocyte counts” value in the series with HIV (by week 4, stable at week 6 and 12, pretreatment 250/mm^3) is given as 380-420 cells/mm^3. Besides, the viral load with HIV (immediately after treatment day 5, pretreatment 400,000 copies/ml) is on record as 50,000 HIV-RNA copies/ml. In addition, the “magnetic resonance imaging and echo of the abdomen” value in series [1] (after combined treatments) is “complete resolution of peritoneal metastasis”. Further, in series [1] (end of the sixth week, DNP with carboplatin, mitomycin, doxifluridine), the ascites result is on record as “resolved”. Further, the survival entry in series [1] (nine and a half months after treatment) is reported as “alive without any evidence of tumor reoccurrence”. Also, in series [1] (week 6, combined treatments), the “serum levels of amylase and all tumor markers” value is given as “normal at week 6”. Moreover, in series [2], the “increase in heat production” value is listed as 83% and the “increase in oxygen consumption” value is on record as 36%. In addition, in the series on hepatic ischemic injury, the “effect of DNP pretreatment before hepatic ischemic injury” value is on record as “protective effect”. Also, in series [3], the hyperthermia result was “up to 49 °C”. For the same compound, in series [4], the “killing of chronically HIV infected HUT-78 cells” value is given as “killing of chronically HIV infected HUT-78 cells”.
